Assay results: patent publication US20060069132A1, “Azolecarboxamide herbicides” (priority 2004, published 2006)

What was measured:
[1] = system: barley cv. Boone; assay: Test I safening of Compound 6 by Harmony Extra Herbicide, pre-/postemergence; format: in vivo, Hordeum vulgare
Experimental: This test evaluated the safening of Compound 6 on barley (Hordeum vulgare L.) cv. ‘Boone’ and wheat (Triticum aestivum L.) cv. ‘Recital’ by Harmony® Extra Herbicide, which comprises 50 wt % thifensulfuron-methyl and 25 wt % tribenuron-methyl. Barley and wheat seeds were planted in pots containing a pasteurized blend of Matapeake soil and sand. For postemergence testing the plants were grown 10 days so the barley seedlings were at the 2-leaf stage and the wheat seedlings were at the 2-3-leaf stage at time of treatment. Preemergence treatments were applied the day after the seeds were planted. Treatments were applied by spraying Compound 6 and/or […] in a non-phytotoxic solvent mixture, using flat fan nozzle and a spray volume of 280 L/ha. The treatments were triply replicated and the results subsequently averaged. The pots were placed on a greenhouse bench using a complete randomized block design except for the first replicate, which was unrandomized. The plants were grown in the greenhouse and watered as needed with a dilute nutrient solution containing 200 ppm of N. Illumination was daylight supplemented by artificial sources to maintain a photoperiod of 14 hours. The temperature was maintained at 23±2° C. during the day and 17±2° C. at night. The effects of the treatments were rated 25 days after preemergence treatment and 15 days after postemergence treatment. The plant response was visually rated in comparison to untreated controls using a scale of 0 to 100, with 0 representing no effect and 100 representing complete plant death.
Colby's Equation was used to calculate the expected additive herbicidal effect of the mixtures of Compound 6 with Harmony® Extra (i.e. a 2:1 mixture by weight of thifensulfuron-methyl and tribenuron-methyl). Colby's Equation (Colby, S. R. “Calculating Synergistic and Antagonistic Responses of Herbicide Combinations,” Weeds, 15(1), pp 20-22 (1967)) calculates the expected additive effect of herbicidal mixtures, and for two active ingredients is of the form: Pa+b=Pa+Pb−(PaPb/100) wherein • Pa+b is the percentage effect of the mixture expected from additive contribution of the individual components, • Pa is the observed percentage effect of the first active ingredient at the same use rate as in the mixture, and • Pb is the observed percentage effect of the second active ingredient at the same use rate as in the mixture.
The results and additive effects expected from Colby's Equation for the preemergence test are listed in Table I1, and the results and additive effects expected from Colby's Equation for the postemergence test are listed in Table I2.

[2] = system: wheat (TRZAS); assay: Test J Compounds 2 and 6 alone and in combination with other herbicides, foliage spray; format: in vivo, Triticum aestivum; parameters: key: 0 = no effect, 100 = complete control; settings: applied alone
Description: Colby's Equation was used to calculate the expected additive herbicidal effect of the mixtures of Compound 6 with Harmony® Extra (i.e. a 2:1 mixture by weight of thifensulfuron-methyl and tribenuron-methyl). […]
(§1) Seeds of test plants consisting of barnyardgrass (ECHCG; Echinochloa crus-galli (L.) Beauv.), blackgrass (ALOMY; Alopecurus myosuroides Huds.), Surinam grass (BRADC; Urochloa decumbens (Staph) R. D. Webster, previously named Brachiaria decumbens Stapf), cocklebur (XANST, Xanthium strumarium L.), corn (ZEAMD, Zea mays L. cv. ‘Pioneer 33G26’), large crabgrass (DIGSA, Digitaria sanguinalis (L.) Scop.), giant foxtail (SETFA, Setaria faberi Herrm.), lambsquarters (CHEAL, Chenopodium album L.), morningglory (IPOCO, Ipomoea coccinea L.), pigweed (AMARE, Amaranthus retroflexus L.), velvetleaf (ABUTH, Abutilon theophrasti Medik.) wheat (TRZAS, Triticum aestivum L. cv. ‘Recital’) and wild oat (AVEFA, Avena fatua L.) were planted in Redi-Earth® planting medium (Scotts Company, 14111 Scottslawn Road, Marysville, Ohio 43041) comprising spaghnum peat moss and vermiculite. […] Also listed in Table J are the expected effects for the mixtures calculated using Colby's Equation.

[3] = system: giant foxtail (SETFA); assay: as above; format: in vivo, Setaria faberi; parameters: key: 0 = no effect, 100 = complete control; settings: applied alone
Description: as §1, with “vermiculite. Seeds of small-seeded species were planted about 1 cm deep; larger seeds were planted about 2.5 cm deep. Plants were grown in a greenhouse using supplemental lighting to maintain a photoperiod of about 14 hours; daytime and nighttime temperatures were about 24-30° C. and 22-25° C., respectively. Balanced fertilizer was applied through the watering system.” for “vermiculite.”

[4] = system: pigweed; assay: Test F pre-/postemergence herbicide test; format: in vivo, Amaranthus retroflexus
Description: Seeds of plant species selected from annual blugrass (Poa annua L.), blackgrass (Alopecurus myosuroides Huds.), catchweed bedstraw (Gallium aparine L.), common chickweed (Stellaria media (L.) Vill./Cyr.), downy bromegrass (Bromus tectorum L.), green foxtail (Setaria viridis (L.) Beauv.), Italian ryegrass (Lolium multiflorum Lam.), kochia (Kochia scoparia (L.). Schrad.), lambsquarters (Chenopodium album L.), littleseed canarygrass (Phalaris minor Retz.), pigweed (Amaranthus retroflexus L.), Russian thistle (Salsola kali L. ssp. Ruthenica (Iljin) Soo), wild buckwheat (Polygonum convolvulus L.), wild mustard (Sinapis arvensis L.), wild oat (Avena fatua L.), windgrass (Apera spica-venti (L.) Beauv.), winter barley (Hordeum vulgare L.), and wheat (Triticum aestivum L.) were planted and treated preemergence with test chemicals formulated in a non-phytotoxic solvent mixture which included a surfactant.
At the same time, plants selected from these crop and weed species were treated with postemergence applications of some of the test chemicals formulated in the same manner. Plants ranged in height from 2 to 18 cm (1- to 4-leaf stage) for postemergence treatments. Treated plants and controls were maintained in a greenhouse for 12 to 14 days, after which time all species were compared to controls and visually evaluated. Plant response ratings, summarized in Table F, are based on a scale of 0 to 100 where 0 is no effect and 100 is complete control. A dash (-) response means no test result.

Structure (SMILES)	Barley Observed effect ([1]; postemergence, Compound 6 16, thifensulfuron-methyl 0, tribenuron-methyl 0 g a.i./ha)	Barley Observed effect ([1]; postemergence, Compound 6 31, thifensulfuron-methyl 0, tribenuron-methyl 0 g a.i./ha)	Barley Observed effect ([1]; preemergence, Compound 6 16, thifensulfuron-methyl 0, tribenuron-methyl 0 g a.i./ha)	Barley Observed effect ([1]; preemergence, Compound 6 31, thifensulfuron-methyl 0, tribenuron-methyl 0 g a.i./ha)	TRZAS Obsd. ([2]; 62 g a.i./ha)	TRZAS Obsd. ([2]; 125 g a.i./ha)	SETFA Obsd. ([3]; 62 g a.i./ha)	SETFA Obsd. ([3]; 125 g a.i./ha)	Plant response rating (0-100), Pigweed ([4]; Postemergence, 31 g ai/ha)	Plant response rating (0-100), Pigweed ([4]; Postemergence, 62 g ai/ha)	Plant response rating (0-100), Pigweed ([4]; Postemergence, 125 g ai/ha)	Plant response rating (0-100), Pigweed ([4]; Postemergence, 250 g ai/ha)	Plant response rating (0-100), Pigweed ([4]; Preemergence, 31 g ai/ha)	Plant response rating (0-100), Pigweed ([4]; Preemergence, 62 g ai/ha)	Plant response rating (0-100), Pigweed ([4]; Preemergence, 125 g ai/ha)	Plant response rating (0-100), Pigweed ([4]; Preemergence, 250 g ai/ha)
CCn1nc(C(C)(C)C)cc1C(=O)Nc1cc(C(=O)N(C)C)ccc1F [Compound 6, N-[5-[(dimethylamino)carbonyl]-2-fluorophenyl]-3-(1,1-dimethylethyl)-1-ethyl-1H-pyrazole-5-carboxamide]	47	73	35	68	15	30	15	33								
CCn1nc(C(C)(C)C)cc1C(=O)Nc1cc(C(=O)OC(C)C)c(F)cc1F [Compound 248]									65	65	70	70	70	75	95	95
